Measurements from PubChem BioAssay (NCI).
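Following 48 hours of exposure in 96-well plates, responses at five concentrations were used to interpolate endpoints linearly. TGI denotes the concentration required for complete inhibition of growth.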

Key:
Experiment in all cases: DTP human tumour cell line panel, 48 h
UO-31 renal = system: UO-31 renal
U251 CNS = system: U251 CNS
HCT-15 colon = system: HCT-15 colon
IGROV1 ovarian = system: IGROV1 ovarian
HS 578T breast = system: HS 578T breast
MDA-MB-231 breast = system: MDA-MB-231 breast
SNB-19 CNS = system: SNB-19 CNS
SW-620 colon = system: SW-620 colon
K-562 leukemia = system: K-562 leukemia
SK-OV-3 ovarian = system: SK-OV-3 ovarian
M14 melanoma = system: M14 melanoma
SK-MEL-2 melanoma = system: SK-MEL-2 melanoma
OVCAR-5 ovarian = system: OVCAR-5 ovarian
HT29 colon = system: HT29 colon
UACC-62 melanoma = system: UACC-62 melanoma
DU-145 prostate = system: DU-145 prostate
LOX IMVI melanoma = system: LOX IMVI melanoma
NCI-H460 lung = system: NCI-H460 lung
MOLT-4 leukemia = system: MOLT-4 leukemia
HOP-62 NSCLC = system: HOP-62 NSCLC

SMILES	TGI (UO-31 renal)	TGI (U251 CNS)	TGI (HCT-15 colon)	TGI (IGROV1 ovarian)	TGI (HS 578T breast)	TGI (MDA-MB-231 breast)	TGI (SNB-19 CNS)	TGI (SW-620 colon)	TGI (K-562 leukemia)	TGI (SK-OV-3 ovarian)	TGI (M14 melanoma)	TGI (SK-MEL-2 melanoma)	TGI (OVCAR-5 ovarian)	TGI (HT29 colon)	TGI (UACC-62 melanoma)	TGI (DU-145 prostate)	TGI (LOX IMVI melanoma)	TGI (NCI-H460 lung)	TGI (MOLT-4 leukemia)	TGI (HOP-62 NSCLC)
CCOC(=O)C1C(C)C2(C#N)C(=N)OC1(C)C2(C#N)C#N (stereo not drawn)	> 100 µM	> 100 µM	> 100 µM	> 100 µM	> 100 µM	> 100 µM	> 100 µM	> 100 µM	> 100 µM	> 100 µM	> 100 µM	> 100 µM	> 100 µM	> 100 µM	> 100 µM	> 100 µM	67.1 µM			
N#Cc1ccc(CSC2=C(c3ccc(Cl)cc3)S/C(=C3\SC(SCc4ccc(C#N)cc4)=C(c4ccc(Cl)cc4)S3)S2)cc1		> 100 µM	> 100 µM	> 100 µM	> 100 µM	> 100 µM	> 100 µM	> 100 µM	> 100 µM	> 100 µM	> 100 µM	> 100 µM	> 100 µM	> 100 µM	> 100 µM	> 100 µM	> 100 µM	> 100 µM	> 100 µM	> 100 µM
C=C(C)[C@@]1(O)CCCC[C@@H]1CC(Sc1ccccc1)Sc1ccccc1	31.5 µM	53.9 µM	33.3 µM	33.6 µM	35.1 µM	38.7 µM	38.3 µM		44.4 µM	39.6 µM	39.3 µM	30.1 µM	30.7 µM	42.5 µM	> 100 µM	30.1 µM	31.2 µM	29.4 µM	32.5 µM	35 µM
[N-]=[N+]=Nc1c(Cl)c(Cl)nc2ccccc12	> 100 µM		> 100 µM	> 100 µM	> 100 µM	> 100 µM	> 100 µM	> 100 µM	> 100 µM	> 100 µM	> 100 µM	> 100 µM	> 100 µM	> 100 µM	> 100 µM	> 100 µM	> 100 µM	> 100 µM	> 100 µM	> 100 µM
COC(=O)C1=C(OC(=O)c2ccccc2)C(C(=O)OC)[C@@]2(O)[C@@H](C(=O)OC)[C@H](C)C[C@@H]1[C@@H]2C(=O)OC (stereo partly drawn)	> 100 µM	> 100 µM	> 100 µM	> 100 µM	> 100 µM	> 100 µM	> 100 µM	> 100 µM		> 100 µM	> 100 µM	> 100 µM	> 100 µM	> 100 µM	> 100 µM	> 100 µM	> 100 µM	> 100 µM	> 100 µM	> 100 µM
COc1ccc(C2=C(N)c3c(Cl)cccc3C2=O)cc1		> 100 µM	> 100 µM	> 100 µM	> 100 µM	> 100 µM	> 100 µM	> 100 µM		> 100 µM	> 100 µM	> 100 µM	> 100 µM	> 100 µM	> 100 µM	> 100 µM	> 100 µM	> 100 µM	> 100 µM	> 100 µM
CCN(CC)CCN(C(=Nc1ccccc1)N1CCCCC1)c1ccccc1	26.5 µM	43.3 µM	> 100 µM	20.6 µM	27 µM	38.8 µM	> 100 µM	> 100 µM	16.2 µM	24.2 µM	21.7 µM	37.7 µM		30.9 µM		> 100 µM	23.7 µM	24.8 µM	25.2 µM	22.2 µM
COC(=O)c1ccccc1CC(Cc1ccc2c(c1)CCC2)C(=O)OC (stereo not drawn)	> 100 µM	> 100 µM	> 100 µM	> 100 µM	> 100 µM	> 100 µM	> 100 µM	> 100 µM	> 100 µM	> 100 µM	> 100 µM	> 100 µM	> 100 µM	> 100 µM		> 100 µM	> 100 µM	> 100 µM	> 100 µM	> 100 µM
CC(=O)OCC1OC(n2c3c(cc(C#N)c2=S)CCC3)C(OC(C)=O)C(OC(C)=O)C1OC(C)=O (stereo not drawn)	> 100 µM	> 100 µM	> 100 µM	> 100 µM	> 100 µM	> 100 µM	> 100 µM	> 100 µM	> 100 µM		> 100 µM	> 100 µM	> 100 µM	> 100 µM	> 100 µM	> 100 µM	> 100 µM	> 100 µM	> 100 µM	> 100 µM
CNC(=O)NCCN1CC2CCC(CC2)C1	> 10 µM	> 10 µM	> 10 µM	> 10 µM	> 10 µM	> 10 µM	> 10 µM	> 10 µM	> 10 µM	> 10 µM	> 10 µM	> 10 µM		> 10 µM	> 10 µM	> 10 µM	> 10 µM	> 10 µM	> 10 µM	> 10 µM
N#Cc1ccc(N2CCOCC2)cc1	> 100 µM	> 100 µM	> 100 µM	> 100 µM	> 100 µM	> 100 µM	> 100 µM	> 100 µM		> 100 µM	> 100 µM	> 100 µM	> 100 µM	> 100 µM	> 100 µM	> 100 µM	> 100 µM	> 100 µM	> 100 µM	> 100 µM
O=C(/C=C/c1ccc(C(F)(F)F)cc1)c1c([O-])on[n+]1-c1ccccc1	4 µM		3.12 µM	4.02 µM	> 32.3 µM	20 µM	15.5 µM		> 100 µM	> 63.4 µM	6.6 µM	9.64 µM	8.06 µM	2.25 µM	2.81 µM	7.17 µM	1.56 µM	6.44 µM	2.04 µM	13 µM
